In ChEMBL document CHEMBL4765227, “Hit to lead optimization of a series of N-[4-(1,3-benzothiazol-2-yl)phenyl]acetamides as monoacylglycerol lipase inhibitors with potential anticancer activity” (Eur J Med Chem, 2016):

Experiments:
Assay type in all cases: functional
Conditions in all cases: read-out: GI
[1] = system: CCRF-CEM; assay: Growth inhibition of human CCRF-CEM cells at 10 uM incubated for 48 hrs by sulforhodamine B assay relative to control
[2] = system: HL-60(TB); assay: Growth inhibition of human HL-60(TB) cells at 10 uM incubated for 48 hrs by sulforhodamine B assay relative to control
[3] = system: K562; assay: Growth inhibition of human K562 cells at 10 uM incubated for 48 hrs by sulforhodamine B assay relative to control
[4] = system: MOLT-4; assay: Growth inhibition of human MOLT-4 cells at 10 uM incubated for 48 hrs by sulforhodamine B assay relative to control
[5] = system: HOP-92; assay: Growth inhibition of human HOP-92 cells at 10 uM incubated for 48 hrs by sulforhodamine B assay relative to control
[6] = system: NCI-H226; assay: Growth inhibition of human NCI-H226 cells at 10 uM incubated for 48 hrs by sulforhodamine B assay relative to control
[7] = system: NCI-H23; assay: Growth inhibition of human NCI-H23 cells at 10 uM incubated for 48 hrs by sulforhodamine B assay relative to control
[8] = system: NCI-H522; assay: Growth inhibition of human NCI-H522 cells at 10 uM incubated for 48 hrs by sulforhodamine B assay relative to control
[9] = system: COLO 205; assay: Growth inhibition of human COLO 205 cells at 10 uM incubated for 48 hrs by sulforhodamine B assay relative to control
[10] = system: HCC 2998; assay: Growth inhibition of human HCC 2998 cells at 10 uM incubated for 48 hrs by sulforhodamine B assay relative to control
[11] = system: HCT-116; assay: Growth inhibition of human HCT-116 cells at 10 uM incubated for 48 hrs by sulforhodamine B assay relative to control
[12] = system: HCT-15; assay: Growth inhibition of human HCT-15 cells at 10 uM incubated for 48 hrs by sulforhodamine B assay relative to control
[13] = system: HT-29; assay: Growth inhibition of human HT-29 cells at 10 uM incubated for 48 hrs by sulforhodamine B assay relative to control
[14] = system: KM12; assay: Growth inhibition of human KM12 cells at 10 uM incubated for 48 hrs by sulforhodamine B assay relative to control
[15] = system: SF-268; assay: Growth inhibition of human SF-268 cells at 10 uM incubated for 48 hrs by sulforhodamine B assay relative to control
[16] = system: SF-295; assay: Growth inhibition of human SF-295 cells at 10 uM incubated for 48 hrs by sulforhodamine B assay relative to control
[17] = system: SF-539; assay: Growth inhibition of human SF-539 cells at 10 uM incubated for 48 hrs by sulforhodamine B assay relative to control
[18] = system: SNB-19; assay: Growth inhibition of human SNB-19 cells at 10 uM incubated for 48 hrs by sulforhodamine B assay relative to control
[19] = system: SNB-75; assay: Growth inhibition of human SNB-75 cells at 10 uM incubated for 48 hrs by sulforhodamine B assay relative to control
[20] = system: LOX IMVI; assay: Growth inhibition of human LOX IMVI cells at 10 uM incubated for 48 hrs by sulforhodamine B assay relative to control
[21] = system: Malme-3M; assay: Growth inhibition of human Malme-3M cells at 10 uM incubated for 48 hrs by sulforhodamine B assay relative to control
[22] = system: M14; assay: Growth inhibition of human M14 cells at 10 uM incubated for 48 hrs by sulforhodamine B assay relative to control
[23] = system: MDA-MB-435; assay: Growth inhibition of human MDA-MB-435 cells at 10 uM incubated for 48 hrs by sulforhodamine B assay relative to control
[24] = system: SK-MEL-28; assay: Growth inhibition of human SK-MEL-28 cells at 10 uM incubated for 48 hrs by sulforhodamine B assay relative to control
[25] = system: SK-MEL-5; assay: Growth inhibition of human SK-MEL-5 cells at 10 uM incubated for 48 hrs by sulforhodamine B assay relative to control
[26] = system: UACC-257; assay: Growth inhibition of human UACC-257 cells at 10 uM incubated for 48 hrs by sulforhodamine B assay relative to control
[27] = system: UACC-62; assay: Growth inhibition of human UACC-62 cells at 10 uM incubated for 48 hrs by sulforhodamine B assay relative to control
[28] = system: IGROV-1; assay: Growth inhibition of human IGROV-1 cells at 10 uM incubated for 48 hrs by sulforhodamine B assay relative to control
[29] = system: OVCAR-3; assay: Growth inhibition of human OVCAR-3 cells at 10 uM incubated for 48 hrs by sulforhodamine B assay relative to control
[30] = system: OVCAR-4; assay: Growth inhibition of human OVCAR-4 cells at 10 uM incubated for 48 hrs by sulforhodamine B assay relative to control
[31] = system: OVCAR-5; assay: Growth inhibition of human OVCAR-5 cells at 10 uM incubated for 48 hrs by sulforhodamine B assay relative to control
[32] = system: OVCAR-8; assay: Growth inhibition of human OVCAR-8 cells at 10 uM incubated for 48 hrs by sulforhodamine B assay relative to control
[33] = system: NCI/ADR-RES; assay: Growth inhibition of human NCI/ADR-RES cells at 10 uM incubated for 48 hrs by sulforhodamine B assay relative to control
[34] = system: RXF 393; assay: Growth inhibition of human RXF 393 cells at 10 uM incubated for 48 hrs by sulforhodamine B assay relative to control
[35] = system: SN12C; assay: Growth inhibition of human SN12C cells at 10 uM incubated for 48 hrs by sulforhodamine B assay relative to control
[36] = system: TK-10; assay: Growth inhibition of human TK-10 cells at 10 uM incubated for 48 hrs by sulforhodamine B assay relative to control
[37] = system: UO-31; assay: Growth inhibition of human UO-31 cells at 10 uM incubated for 48 hrs by sulforhodamine B assay relative to control
[38] = system: PC-3; assay: Growth inhibition of human PC-3 cells at 10 uM incubated for 48 hrs by sulforhodamine B assay relative to control
[39] = system: DU-145; assay: Growth inhibition of human DU-145 cells at 10 uM incubated for 48 hrs by sulforhodamine B assay relative to control
[40] = system: MCF7; assay: Growth inhibition of human MCF7 cells at 10 uM incubated for 48 hrs by sulforhodamine B assay relative to control
[41] = system: MDA-MB-231; assay: Growth inhibition of human MDA-MB-231 cells at 10 uM incubated for 48 hrs by sulforhodamine B assay relative to control
[42] = system: Hs-578T; assay: Growth inhibition of human Hs-578T cells at 10 uM incubated for 48 hrs by sulforhodamine B assay relative to control
[43] = system: BT-549; assay: Growth inhibition of human BT-549 cells at 10 uM incubated for 48 hrs by sulforhodamine B assay relative to control
[44] = system: MDA-MB-468; assay: Growth inhibition of human MDA-MB-468 cells at 10 uM incubated for 48 hrs by sulforhodamine B assay relative to control

Compound: COc1ccc(NCC(=O)Nc2ccc(-c3nc4ccccc4s3)cc2)cc1
- inhibition of growth at 10 µM [1]: 40.8%
- inhibition of growth at 10 µM [2]: 20.9%
- inhibition of growth at 10 µM [3]: 11.6%
- inhibition of growth at 10 µM [4]: 33.7%
- inhibition of growth at 10 µM [5]: 29.1%
- inhibition of growth at 10 µM [6]: 5.16%
- inhibition of growth at 10 µM [7]: 14.3%
- inhibition of growth at 10 µM [8]: 5.02%
- inhibition of growth at 10 µM [9]: -6.9%
- inhibition of growth at 10 µM [10]: 3.49%
- inhibition of growth at 10 µM [11]: 11.6%
- inhibition of growth at 10 µM [12]: 10.1%
- inhibition of growth at 10 µM [13]: -8.15%
- inhibition of growth at 10 µM [14]: 3.03%
- inhibition of growth at 10 µM [15]: 10.5%
- inhibition of growth at 10 µM [16]: 3.2%
- inhibition of growth at 10 µM [17]: 3.41%
- inhibition of growth at 10 µM [18]: 11.4%
- inhibition of growth at 10 µM [19]: 25.4%
- inhibition of growth at 10 µM [20]: 8.68%
- inhibition of growth at 10 µM [21]: -26%
- inhibition of growth at 10 µM [22]: 0.16%
- inhibition of growth at 10 µM [23]: -7.51%
- inhibition of growth at 10 µM [24]: -11.1%
- inhibition of growth at 10 µM [25]: 2.74%
- inhibition of growth at 10 µM [26]: -3.88%
- inhibition of growth at 10 µM [27]: 0.37%
- inhibition of growth at 10 µM [28]: 7.74%
- inhibition of growth at 10 µM [29]: 3.44%
- inhibition of growth at 10 µM [30]: 12.8%
- inhibition of growth at 10 µM [31]: 1.84%
- inhibition of growth at 10 µM [32]: 4.93%
- inhibition of growth at 10 µM [33]: -1.88%
- inhibition of growth at 10 µM [34]: -1.89%
- inhibition of growth at 10 µM [35]: 5.87%
- inhibition of growth at 10 µM [36]: -8.6%
- inhibition of growth at 10 µM [37]: 28.1%
- inhibition of growth at 10 µM [38]: 12.9%
- inhibition of growth at 10 µM [39]: 0.77%
- inhibition of growth at 10 µM [40]: 35%
- inhibition of growth at 10 µM [41]: 27.5%
- inhibition of growth at 10 µM [42]: 2.83%
- inhibition of growth at 10 µM [43]: 15.2%
- inhibition of growth at 10 µM [44]: 5.6%

Compound: NS(=O)(=O)c1ccc(NCC(=O)Nc2ccc(-c3nc4ccccc4s3)cc2)cc1
- inhibition of growth at 10 µM [1]: 93.8%
- inhibition of growth at 10 µM [2]: 66.6%
- inhibition of growth at 10 µM [3]: 91.6%
- inhibition of growth at 10 µM [4]: 93.8%
- inhibition of growth at 10 µM [5]: 26.5%
- inhibition of growth at 10 µM [6]: 16.3%
- inhibition of growth at 10 µM [7]: 25.3%
- inhibition of growth at 10 µM [8]: 164%
- inhibition of growth at 10 µM [9]: 1.47%
- inhibition of growth at 10 µM [10]: 12.4%
- inhibition of growth at 10 µM [11]: 74.9%
- inhibition of growth at 10 µM [12]: 53.4%
- inhibition of growth at 10 µM [13]: 25.5%
- inhibition of growth at 10 µM [14]: 38.4%
- inhibition of growth at 10 µM [15]: 74.9%
- inhibition of growth at 10 µM [16]: 1.17%
- inhibition of growth at 10 µM [17]: 8.62%
- inhibition of growth at 10 µM [18]: 25.7%
- inhibition of growth at 10 µM [19]: 30.5%
- inhibition of growth at 10 µM [20]: 87%
- inhibition of growth at 10 µM [21]: 46.4%
- inhibition of growth at 10 µM [22]: 54.4%
- inhibition of growth at 10 µM [23]: 23%
- inhibition of growth at 10 µM [24]: 0.58%
- inhibition of growth at 10 µM [25]: 28.7%
- inhibition of growth at 10 µM [26]: 2.83%
- inhibition of growth at 10 µM [27]: 62%
- inhibition of growth at 10 µM [28]: 41%
- inhibition of growth at 10 µM [29]: 65.7%
- inhibition of growth at 10 µM [30]: 32.8%
- inhibition of growth at 10 µM [31]: -5.64%
- inhibition of growth at 10 µM [32]: 17.3%
- inhibition of growth at 10 µM [33]: 5.97%
- inhibition of growth at 10 µM [34]: 0.08%
- inhibition of growth at 10 µM [35]: 52.2%
- inhibition of growth at 10 µM [36]: -5.51%
- inhibition of growth at 10 µM [37]: 25.6%
- inhibition of growth at 10 µM [38]: 35.3%
- inhibition of growth at 10 µM [39]: 53%
- inhibition of growth at 10 µM [40]: 72.4%
- inhibition of growth at 10 µM [41]: 55%
- inhibition of growth at 10 µM [42]: 1.67%
- inhibition of growth at 10 µM [43]: 85.5%
- inhibition of growth at 10 µM [44]: 95.7%
